*1 amine or outer side, *2 acyl side, *3 side chain or, on linkers, in order; H or OH if unused. Where a SMILES comes first, the peptide text is derived from it. Bridges are numbered along the chain shown (N, C = ends). Side-chain parts run from the residue outwards. [ ]: non-standard residue; d: D form. The star is where a group is joined. X4 = C[N+](C)(CCCC[C@H](NC(=O)CN1CCN(CC(=O)O)CCN(CC(=O)O)CCN(CC(=O)O)CC1)C(=O)*)CCCS(=O)(=O)[O-]; DOTA = O=C(O)CN1CCN(CC(=O)O)CCN(CC(=O)*)CCN(CC(=O)O)CC1; Pro(cis-4-F) = O=C(O)[C@@H]1C[C@H](F)CN1; Ethylenediamine = C(CN[*:2])N[*:1]; Hyp = O=C(O)[C@@H]1C[C@@H](O)CN1; αMeF = C[C@](N)(Cc1ccccc1)C(=O)O; Pentanoyl(4-Me) = CC(C)CCC(=O)*; Cit = NC(=O)NCCC[C@H](N)C(=O)O; Aic = NC1(C(=O)O)Cc2ccccc2C1; Butoxycarbonyl = CCCCOC(=O)*; NMeNle = CCCC[C@H](NC)C(=O)O; Nle = CCCC[C@H](N)C(=O)O; Aze = O=C(O)[C@@H]1CCN1; Nva = CCC[C@H](N)C(=O)O; Pentanoyl = CCCCC(=O)*; Aib = CC(C)(N)C(=O)O
Columns and labels:
[1] = biological target: T1, uPAR-expressing HEC-265 human endometrial adenocarcinoma cells (Homo sapiens, UniProt Q03405); experiment: Competitive FACS binding assay; details: pIC50 category of FACS binding
T1 construct: Cell surface uPAR-expressing HEC-265 human endometrial adenocarcinoma cells; host or cells: HEC-265
T1 sequence (Q03405 23-335): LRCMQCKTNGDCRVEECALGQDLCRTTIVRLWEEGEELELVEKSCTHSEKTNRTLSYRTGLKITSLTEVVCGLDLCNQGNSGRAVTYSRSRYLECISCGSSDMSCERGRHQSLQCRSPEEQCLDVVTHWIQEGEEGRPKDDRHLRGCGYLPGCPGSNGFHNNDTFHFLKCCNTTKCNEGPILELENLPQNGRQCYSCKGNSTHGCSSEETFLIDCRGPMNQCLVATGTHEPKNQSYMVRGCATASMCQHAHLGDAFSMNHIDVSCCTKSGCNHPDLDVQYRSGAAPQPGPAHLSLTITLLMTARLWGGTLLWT
In short: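 HEC-265 cells incubated 1 h at 4 °C with 10 nM biotinylated uPAR peptide tracer plus increasing test compound, then stained with APC-streptavidin on ice. Median APC fluorescence by flow cytometry; 4PL fit gives pIC50.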

human uPAR (uPAR-Fc) = biological target: T2, human uPAR (uPAR-Fc) (Homo sapiens, UniProt Q03405); experiment: Surface plasmon resonance (SPR) assay, single cycle kinetics; assay type: binding; details: pKD category for uPAR SPR activity assay; uPAR-Fc on Protein A-Chip, single cycle kinetics, 25°C; read-out: pKD CAT (converted)
T2 construct: comprising amino acids Leu23-Arg303 according to UniProt entry Q03405.1; purchased R&D Systems 10378-UK-100
T2 sequence (Q03405 23-303): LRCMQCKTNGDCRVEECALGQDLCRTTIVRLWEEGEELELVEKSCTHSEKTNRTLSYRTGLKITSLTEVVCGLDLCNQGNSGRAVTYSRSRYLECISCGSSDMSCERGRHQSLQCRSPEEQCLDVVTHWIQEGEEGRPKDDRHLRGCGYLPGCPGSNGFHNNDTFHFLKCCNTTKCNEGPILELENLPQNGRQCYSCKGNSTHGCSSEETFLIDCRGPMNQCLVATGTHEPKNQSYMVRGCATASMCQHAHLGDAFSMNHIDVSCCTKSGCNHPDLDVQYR
In short: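 uPAR-Fc (Leu23-Arg303 extracellular domains, human IgG1 Fc) captured on Protein A chip to ~2000 RU; single-cycle kinetics at 25°C in HEPES running buffer pH 7.4 with 0.1% DMSO. KD from double-referenced sensorgrams fitted to 1:1 Langmuir model, reported as pKD.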

| SMILES | IC50 [1] [nM] | Kd (human uPAR (uPAR-Fc)) [nM] |
| --- | --- | --- |
| CCCCC(=O)N[C@H]1CSSC[C@@H](C(N)=O)NC(=O)[C@H](CCC)NC(=O)[C@H]([C@@H](C)CC)NC(=O)[C@@H]2C[C@@H](O)CN2C(=O)C(C)(C)NC(=O)[C@H](Cc2ccccc2)NC(=O)[C@H](Cc2ccc(O)cc2)NC(=O)[C@H](CCCCNC(=O)CN2CCN(CC(=O)O)CCN(CC(=O)O)CCN(CC(=O)O)CC2)NC(=O)[C@H]([C@@H](C)O)NC1=O [UPAR-419, Pent-[Cys-Thr-Lys(DOTA)-Tyr-Phe-Aib-Hyp-Ile-Nva-Cys]-NH2] (Pentanoyl-CTK(DOTA)YF[Aib][Hyp]I[Nva]C-NH2; disulfide 1-10) | 12.6 to 31.6 | 10 to 100 |
| CCCCOC(=O)N[C@H]1CSSC[C@@H](C(N)=O)NC(=O)[C@H](CCC)NC(=O)[C@H]([C@@H](C)CC)NC(=O)[C@@H]2C[C@@H](O)CN2C(=O)[C@@H]2C[C@H](F)CN2C(=O)[C@H](Cc2ccccc2)NC(=O)[C@H](Cc2ccc(O)cc2)NC(=O)[C@H](CCCCNC(=O)[C@H](CCCC[N+](C)(C)CCCS(=O)(=O)[O-])NC(=O)CN2CCN(CC(=O)O)CCN(CC(=O)O)CCN(CC(=O)O)CC2)NC(=O)[C@H]([C@@H](C)O)NC1=O [UPAR-422, Butoc-[Cys-Thr-Lys(DOTA-Kzw)-Tyr-Phe-4Cfp-Hyp-Ile-Nva-Cys]-NHz] (Butoxycarbonyl-CTK(X4)YF[Pro(cis-4-F)][Hyp]I[Nva]C-NH2; disulfide 1-10) | ≤ 10 | < 1.58 |
| CCCCOC(=O)N[C@H]1CSSC[C@@H](C(N)=O)NC(=O)[C@H](CCC)NC(=O)[C@H]([C@@H](C)CC)NC(=O)[C@@H]2C[C@@H](O)CN2C(=O)[C@@H]2C[C@H](F)CN2C(=O)[C@H](Cc2ccccc2)NC(=O)[C@H](Cc2ccc(O)cc2)NC(=O)[C@H](CCCCNC(=O)[C@@H](CC(=O)O)NC(=O)CN2CCN(CC(=O)O)CCN(CC(=O)O)CCN(CC(=O)O)CC2)NC(=O)[C@H]([C@@H](C)O)NC1=O [UPAR-424, Butoc-[Cys-Thr-Lys(DOTA-asp)-Tyr-Phe-4Cfp-Hyp-Ile-Nva-Cys]-NHz] (Butoxycarbonyl-CTK([dD-DOTA])YF[Pro(cis-4-F)][Hyp]I[Nva]C-NH2; disulfide 1-10) | ≤ 10 | < 1.58 |
| CC[C@H](C)[C@@H]1NC(=O)[C@@H](C)NC(=O)[C@@H]2CCN2C(=O)[C@H](Cc2ccccc2)NC(=O)[C@H](Cc2ccc(O)cc2)NC(=O)[C@H](CCC(N)=O)NC(=O)[C@H](CCCNC(N)=O)NC(=O)[C@@H](NC(=O)CCC(C)C)CSSC[C@@H](C(N)=O)NC(=O)[C@H](CC(C)C)NC1=O [UPAR-426, iHex-[Cys-Cit-Gln-Tyr-Phe-Aze-ala-Ile-Leu-Cys]-NH2] ({Pentanoyl(4-Me)}-C[Cit]QYF[Aze][dA]ILC-NH2; disulfide 1-10) | ≤ 10 | 1.58 to 10 |
| CCCC[C@H](NC)C(=O)N[C@H]1CSSC[C@@H](C(N)=O)NC(=O)[C@H](CCC)NC(=O)[C@H]([C@@H](C)CC)NC(=O)[C@@H]2C[C@@H](O)CN2C(=O)[C@@H]2C[C@H](F)CN2C(=O)[C@H](Cc2ccccc2)NC(=O)[C@H](Cc2ccc(O)cc2)NC(=O)[C@H](CCCCNC(=O)CN2CCN(CC(=O)O)CCN(CC(=O)O)CCN(CC(=O)O)CC2)NC(=O)[C@H]([C@@H](C)O)NC1=O [UPAR-428, H-Nmb-[Cys-Thr-Lys(DOTA)-Tyr-Phe-4Cfp-Hyp-Ile-Nva-Cys]-NH2] (H-[NMeNle]CTK(DOTA)YF[Pro(cis-4-F)][Hyp]I[Nva]C-NH2; disulfide 2-11) | ≤ 10 | < 1.58 |
| CCC[C@@H]1NC(=O)[C@H]([C@@H](C)CC)NC(=O)[C@@H](C)NC(=O)[C@@H]2CCCN2C(=O)[C@H](Cc2ccccc2)NC(=O)[C@H](Cc2ccc(O)cc2)NC(=O)[C@H](CCC(N)=O)NC(=O)[C@H](CCCNC(N)=O)NC(=O)[C@@H](NC(=O)CCC(C)C)CSSC[C@@H](C(N)=O)NC1=O [UPAR-429, iHex-[Cys-Cit-Gln-Tyr-Phe-Pro-ala-Ile-Nva-Cys]-NH2] ({Pentanoyl(4-Me)}-C[Cit]QYFP[dA]I[Nva]C-NH2; disulfide 1-10) | ≤ 10 | < 1.58 |
| CCCCC(=O)N[C@H]1CSSC[C@@H](C(=O)NCCN)NC(=O)[C@H](CCC)NC(=O)[C@H]([C@@H](C)CC)NC(=O)[C@@H]2C[C@@H](O)CN2C(=O)[C@@H]2CCCN2C(=O)[C@H](Cc2ccccc2)NC(=O)[C@H](Cc2ccc(O)cc2)NC(=O)[C@H](CCC(N)=O)NC(=O)[C@H](CCCNC(N)=O)NC1=O [UPAR-430, Pent-[Cys-Cit-Gln-Tyr-Phe-Pro-Hyp-Ile-Nva-Cys]-en] (Pentanoyl-C[Cit]QYFP[Hyp]I[Nva]C-Ethylenediamine; disulfide 1-10) | 12.6 to 31.6 | 1.58 to 10 |
| CCCC[C@@H]1NC(=O)[C@H](CCCNC(=N)N)NC(=O)[C@@H](NC(=O)[C@H](CC(C)C)NC(=O)[C@H](CC(=O)O)NC(C)=O)CSSC[C@@H](C(N)=O)NC(=O)[C@H](CC(C)C)NC(=O)[C@H]([C@@H](C)CC)NC(=O)[C@@H]2CCCN2C(=O)[C@@H]2CCCN2C(=O)[C@H](Cc2ccccc2)NC(=O)[C@H](Cc2ccc(O)cc2)NC1=O [UPAR-431, Ac-Asp-Leu-[Cys-Arg-Nle-Tyr-Phe-Pro-Pro-Ile-Leu-Cys]-NH2] (Ac-DLCR[Nle]YFPPILC-NH2; disulfide 3-12) | ≤ 10 | < 1.58 |
| CC[C@H](C)[C@@H]1NC(=O)[C@@H](C)NC(=O)[C@@H]2CCCN2C(=O)[C@H](Cc2ccccc2)NC(=O)[C@H](Cc2ccc(O)cc2)NC(=O)[C@H](CCCCNC(=O)CN2CCN(CC(=O)O)CCN(CC(=O)O)CCN(CC(=O)O)CC2)NC(=O)[C@H](CC(=O)O)NC(=O)[C@@H](NC(=O)[C@H](CC(C)C)NC(=O)[C@H](CC(=O)O)NC(C)=O)CSSC[C@@H](C(N)=O)NC(=O)[C@H](CC(C)C)NC1=O [UPAR-432, Ac-Asp-Leu-[Cys-Asp-Lys(DOTA)-Tyr-Phe-Pro-ala-Ile-Leu-Cys]-NH2] (Ac-DLCDK(DOTA)YFP[dA]ILC-NH2; disulfide 3-12) | 12.6 to 31.6 | 10 to 100 |

More lines, now with the values ahead:

| IC50 [1] [nM] | Kd (human uPAR (uPAR-Fc)) [nM] | SMILES |
| --- | --- | --- |
| ≥ 126 | > 100 | CCCCC(=O)N[C@H]1CSSC[C@@H](C(N)=O)NC(=O)[C@H](CCC)NC(=O)[C@H]([C@@H](C)CC)NC(=O)[C@@H]2C[C@@H](O)CN2C(=O)[C@@H]2CCCN2C(=O)[C@](C)(Cc2ccccc2)NC(=O)[C@H](Cc2ccc(O)cc2)NC(=O)[C@H](CCCCNC(=O)CN2CCN(CC(=O)O)CCN(CC(=O)O)CCN(CC(=O)O)CC2)NC(=O)[C@H](CCCNC(N)=O)NC1=O [UPAR-416, Pent-[Cys-Cit-Lys(DOTA)-Tyr-Amf-Pro-Hyp-Ile-Nva-Cys]-NH2] (Pentanoyl-C[Cit]K(DOTA)Y[αMeF]P[Hyp]I[Nva]C-NH2; disulfide 1-10) |
| ≥ 126 | > 100 | CCCCC(=O)N[C@H]1CSSC[C@@H](C(N)=O)NC(=O)[C@H](CCC)NC(=O)[C@H]([C@@H](C)CC)NC(=O)[C@@H]2C[C@@H](O)CN2C(=O)[C@@H]2CCCN2C(=O)C2(Cc3ccccc3C2)NC(=O)[C@H](Cc2ccc(O)cc2)NC(=O)[C@H](CCCCNC(=O)CN2CCN(CC(=O)O)CCN(CC(=O)O)CCN(CC(=O)O)CC2)NC(=O)[C@H](CCCNC(N)=O)NC1=O [UPAR-417, Pent-[Cys-Cit-Lys(DOTA)-Tyr-Aic-Pro-Hyp-Ile-Nva-Cys]-NH2] (Pentanoyl-C[Cit]K(DOTA)Y[Aic]P[Hyp]I[Nva]C-NH2; disulfide 1-10) |
| 39.8 to 100 | 10 to 100 | CCCC[C@@H]1NC(=O)[C@H](CCCNC(=N)N)NC(=O)[C@@H](NC(=O)[C@H](CC(C)C)NC(=O)[C@H](CC(=O)O)NC(C)=O)CSSC[C@@H](C(N)=O)NC(=O)[C@H](CC(C)C)NC(=O)[C@@H](CC(C)C)NC(=O)[C@H](C)NC(=O)[C@@H]2CCCN2C(=O)[C@H](Cc2ccccc2)NC(=O)[C@H](Cc2ccc(O)cc2)NC1=O [UPAR-420, Ac-Asp-Leu-[Cys-Arg-Nle-Tyr-Phe-Pro-Ala-leu-Leu-Cys]-NH2] (Ac-DLCR[Nle]YFPA[dL]LC-NH2; disulfide 3-12) |
| ≤ 10 | < 1.58 | CC[C@H](C)[C@@H]1NC(=O)[C@H](CCCNC(=N)N)NC(=O)[C@@H]2CCCN2C(=O)[C@H](Cc2ccccc2)NC(=O)[C@H](Cc2ccc(O)cc2)NC(=O)[C@H](CCCCNC(=O)CN2CCN(CC(=O)O)CCN(CC(=O)O)CCN(CC(=O)O)CC2)NC(=O)[C@H](CCCNC(N)=O)NC(=O)[C@@H](NC(=O)[C@H](CC(C)C)NC(=O)[C@H](CC(=O)O)NC(C)=O)CSSC[C@@H](C(N)=O)NC(=O)[C@H](CC(C)C)NC1=O [UPAR-423, Ac-Asp-Leu-[Cys-Cit-Lys(DOTA)-Tyr-Phe-Pro-Arg-Ile-Leu-Cys]-NH2] (Ac-DLC[Cit]K(DOTA)YFPRILC-NH2; disulfide 3-12) |
| ≤ 10 | < 1.58 | CCCCC(=O)N[C@H]1CSSC[C@@H](C(N)=O)NC(=O)[C@H](CCC)NC(=O)[C@H]([C@@H](C)CC)NC(=O)CNC(=O)[C@@H]2CCCN2C(=O)[C@H](Cc2ccccc2)NC(=O)[C@H](Cc2ccc(O)cc2)NC(=O)[C@H](CCCCNC(=O)CN2CCN(CC(=O)O)CCN(CC(=O)O)CCN(CC(=O)O)CC2)NC(=O)[C@H](CCCNC(N)=O)NC1=O [UPAR-425, Pent-[Cys-Cit-Lys(DOTA)-Tyr-Phe-Pro-Gly-Ile-Nva-Cys]-NH2] (Pentanoyl-C[Cit]K(DOTA)YFPGI[Nva]C-NH2; disulfide 1-10) |
| ≤ 10 | < 1.58 | CCCCC(=O)N[C@H]1CSSC[C@@H](C(N)=O)NC(=O)[C@H](CCC)NC(=O)[C@H]([C@@H](C)CC)NC(=O)[C@@H]2C[C@@H](O)CN2C(=O)[C@H](CC(C)C)NC(=O)[C@H](Cc2ccccc2)NC(=O)[C@H](Cc2ccc(O)cc2)NC(=O)[C@H](CCC(N)=O)NC(=O)[C@H](CCCNC(=N)N)NC1=O [UPAR-433, Pent-[Cys-Arg-Gln-Tyr-Phe-Leu-Hyp-Ile-Nva-Cys]-NH2] (Pentanoyl-CRQYFL[Hyp]I[Nva]C-NH2; disulfide 1-10) |

Reference: patent EP4610269A1, “UROKINASE PLASMINOGEN ACTIVATOR SURFACE RECEPTOR (UPAR) LIGANDS FOR DIAGNOSTIC OR THERAPEUTIC USE” (3B Pharmaceuticals GmbH, priority 2024, dated 2025)
